Tests used:
M. incognita [1] = test: Nematicidal activity of fatty acid methyl ester emulsions against root knot nematode J2 larvae (Example 6); format: cell-based, Meloidogyne incognita; details: 0.1% emulsion; 48 hours incubation, counted about 24 hours after transfer to plates
Method: (§1) Fatty acid methyl ester emulsions were prepared following the teachings of Kim et al (U.S. Pat. No. 5,698,592). Briefly, 1 ml 1% stock solution emulsions were prepared by mixing 10 μl of fatty acid methyl ester with 20 μl of the surfactant Igepal CO 630 in a 1.5 ml eppendorf tube. After careful mixing of fatty acid and Igepal CO 630, 850 μl of ddH20 was added and mixed by gentle pipetting until a homogeneous solution was obtained. Finally, 120 μl of pure isopropanol was added and mixed by gentle pipetting. This stock solution was then used to produce various fatty acid methyl ester dilution emulsions in 24-well plate assays.
(§2) Meloidogyne incognita and javanica were prepared from tomato roots. The roots were bleached and the debris was separated from the J2 larvae and eggs by filtration followed by sucrose density gradient centrifugation. Eggs were hatched over 4 days at 15° C. and the J2 larvae were collected by passage though a filter, followed by centrifugation.
(§3) Nematodes and emulsions were incubated with shaking at room temperature for 48 hours. The contents of each well were transferred to a small spot on individual NGM plates lacking bacteria. About 24 hours after the transfer to plates, worms on and off the inoculation spot were counted as not viable or viable, respectively. Worms were considered viable if they had crawled away from the inoculation spot, or if they were moving. Worms were considered non-viable if they remained at the inoculation spot.

tomato seedlings = test: Phytotoxicity evaluation on tomato seedlings; format: in vivo; details: 250 μl of 1% emulsion applied to stem-media interface of two-week seedlings
Method: Sterilized tomato seeds were germinated in magenta jars containing Gamborg's agar media. After two weeks of growth, seedlings were treated with 250 μl of 1% fatty acid methyl ester emulsion (nonanoic acid, ricinoleic acid, ricinelaidic acid, oleic acid, or a control emulsion lacking any fatty acid), applied directly to the stem-media interface. Tomato seedlings were scored at various times after application of emulsions.

[2] = test system: free-living, animal parasitic, and plant parasitic nematodes; test: Nematicidal activity across the spectrum of nematodes, summary statement (Example 8); format: cell-based; details: concentrations of 0.1% and 0.01%
Method: (§4) Briefly, the indicated fatty acid emulsions were added and rapidly mixed by swirling. Nematode viability was scored by visual observation and motility assays 24 hours following addition of emulsions (48 hours for plant parasitic nematodes Meloidogyne and Heterodera species). The fatty acid emulsions tested were methyl esters of nonanoic (pelargonic) acid, ricinelaidic acid, ricinoleic acid, vernolic acid, linoleic acid, and oleic acid. […] Results shown are mean % values obtained from multiple independent experiments
(§5) The Caenorhabiditis elegans were mixed stage populations. Similar effects seen on several other free-living nematode species. The Parastrongyloides trichosuri (parasite of Australian bushtail possum) were dauer-like infective 3rd stage larva. Similar effects are also seen against free-living stages. The Meloidogyne incognita and Meloidogyne javanica (root knot nematode) were 2nd stage juveniles (dauer-like infective stage). The Heterodera glycines (soybean cyst nematode) were 2nd stage juveniles (dauer-like infective stage). Finally, the Pratylenchus scribneri (corn lesion nematode) were mixed stage populations.

H. glycines = test: Nematicidal activity of fatty acid methyl ester emulsions, spectrum (Example 8); format: cell-based, Heterodera glycines; details: H. glycines 2nd stage juveniles, scored at 48 hours
Method: as §4, §5

M. javanica [3] = test: as above; format: cell-based, Meloidogyne javanica; details: M. javanica 2nd stage juveniles, scored at 48 hours
Method: as §4, §5

[4] = test system: everted hamster jejunal and ileal segments; details: Gaginella et al. (1975); cited from earlier work
P. trichosuri = test: Nematicidal activity of fatty acid methyl ester emulsions, spectrum (Example 8); format: cell-based, Parastrongyloides trichosuri; details: P. trichosuri infective 3rd stage larva
Method: as §4, §5

M. javanica [5] = test: Nematicidal activity of fatty acid methyl ester emulsions against root knot nematode J2 larvae (Example 6); format: cell-based, Meloidogyne javanica; details: 0.1% emulsion; 48 hours incubation, counted about 24 hours after transfer to plates
Method: as §1, §2, §3

M. incognita [6] = test: Nematicidal activity of fatty acid methyl ester emulsions, spectrum (Example 8); format: cell-based, Meloidogyne incognita; details: M. incognita 2nd stage juveniles, scored at 48 hours
Method: as §4, §5

B. malayi = test: Nematicidal activity of tween-based emulsions against microfilarial nematodes; format: cell-based, Brugia malayi
Method: To each well, tween-based fatty acid emulsions were added and rapidly mixed by swirling. Nematode microfilaria viability was scored by visual observation of motility at 24 and 48 hours following addition of emulsions. The fatty acid emulsions tested were methyl esters of ricinoleic acid, vernolic acid, ricinelaidic acid, oleic acid, and control emulsions lacking fatty acids. The results of this study are presented in Table 7 as the percentage of non-motile microfilaria 24 hours after inoculation and in Table 8 as the percentage of non-motile microfilaria 48 hours after inoculation

C. elegans [7] = test: Nematicidal activity of fatty acid methyl ester emulsions, spectrum (Example 8); format: cell-based, Caenorhabditis elegans; details: C. elegans mixed stage
Method: as §4, §5

P. scribneri = test: as above; format: cell-based, Pratylenchus scribneri; details: P. scribneri mixed stage
Method: as §4, §5

C. elegans [8] = test: Nematicidal activity of emulsions made with cyclodextrins (replacing isopropanol) against C. elegans; format: cell-based, Caenorhabditis elegans; details: igepal CO 630 / 2-Hydroxypropyl-β-Cyclodextrin emulsion
From the text: In an effort to increase the bioavailability of fatty acid methyl esters in emulsions, isopropanol was replaced with one of two cyclodextrins (Methyl-β-Cyclodextrin or 2-Hydroxypropyl-β-Cyclodextrin).

C. elegans [9] = test: Nematicidal activity of single fatty acid methyl ester emulsions against Caenorhabditis elegans (Example 4); format: cell-based
Method: Mixed stage Caenorhabditis elegans were washed off plates seeded with OP50 bacteria using M9 solution. 250 μl of the M9 solution, which contained about 50 worms, was pipetted into each well of a 24-well plate.
as §1
To each well, fatty acid emulsions or control emulsions were added and rapidly mixed by swirling. Nematode viability was scored by visual observation and motility assays at various time points 24 hours following addition of emulsions or controls. The fatty acid emulsions tested were methyl esters of nonanoic (pelargonic) acid, ricinoleic acid, vernolic acid, linoleic acid, oleic acid, and control emulsions lacking fatty acids.

CCCCCCC(O)C/C=C\CCCCCCCC(=O)OC (stereo not drawn) [Ricinoleic Acid (C18-methyl ester), 12-hydroxy-cis-9-octadecenoic acid methyl ester]
M. incognita (% not viable) (M. incognita [1]): 95%
Visible effects on tomato seedlings (tomato seedlings): none of the tomatoes treated with the other fatty acid methyl ester emulsions showed visible effects
Nematicidal activity (in words) [2]: strongly nematicidal
% Worm Death (24 hr) (H. glycines; 0.001% solution): ˜40%
% Worm Death (24 hr) (H. glycines; 0.01% solution): ˜60%
% Worm Death (24 hr) (H. glycines; 0.1% solution): ˜60%
% Worm Death (48 hr) (M. javanica [3]; 0.01% solution): 5%
% Worm Death (48 hr) (M. javanica [3]; 0.1% solution): 60%
Effect on water (and electrolyte) absorption [4]: ineffective at suppressing water absorption
% Worm Death (24 hr) (P. trichosuri; 0.01% solution): ˜60%
% Worm Death (24 hr) (P. trichosuri; 0.1% solution): ˜50%
M. javanica (% not viable) (M. javanica [5]): 60%
% Worm Death (24 hr) (M. incognita [6]; 0.01% solution): 83%
% Worm Death (24 hr) (M. incognita [6]; 0.1% solution): 95%
percentage of non-motile microfilaria (B. malayi; 24 hrs post-inoculation, 0.0008%): 0%
percentage of non-motile microfilaria (B. malayi; 24 hrs post-inoculation, 0.0016%): 24.7%
percentage of non-motile microfilaria (B. malayi; 24 hrs post-inoculation, 0.003%): 100%
percentage of non-motile microfilaria (B. malayi; 24 hrs post-inoculation, 0.005%): 100%
percentage of non-motile microfilaria (B. malayi; 24 hrs post-inoculation, 0.0067%): 100%
percentage of non-motile microfilaria (B. malayi; 24 hrs post-inoculation, 0.008%): 100%
percentage of non-motile microfilaria (B. malayi; 48 hrs post-inoculation, 0.0008%): 0%
percentage of non-motile microfilaria (B. malayi; 48 hrs post-inoculation, 0.0016%): 64.2%
percentage of non-motile microfilaria (B. malayi; 48 hrs post-inoculation, 0.003%): 100%
percentage of non-motile microfilaria (B. malayi; 48 hrs post-inoculation, 0.005%): 100%
percentage of non-motile microfilaria (B. malayi; 48 hrs post-inoculation, 0.0067%): 100%
percentage of non-motile microfilaria (B. malayi; 48 hrs post-inoculation, 0.008%): 100%
Microfilarialcidal activity (in words) (B. malayi; tween-based emulsions): strong microfilarialcidal activity
% Worm Death (24 hr) (C. elegans [7]; 0.001% solution): 30%
% Worm Death (24 hr) (C. elegans [7]; 0.01% solution): 80%
% Worm Death (24 hr) (C. elegans [7]; 0.1% solution): 100%
% Worm Death (24 hr) (P. scribneri; 0.01% solution): <20%
% Worm Death (24 hr) (P. scribneri; 0.1% solution): <20%
% Worm Death (24 hr) (C. elegans [8]; 0.001% solution): ˜50%
% Worm Death (24 hr) (C. elegans [8]; 0.01% solution): >80%
% Worm Death (24 hr) (C. elegans [8]; 0.1% solution): >95%
Percentage of Worm Death (C. elegans [9]; 0.003% emulsion, 1 hr): 60%
Percentage of Worm Death (C. elegans [9]; 0.003% emulsion, 6 hr): 60%
Percentage of Worm Death (C. elegans [9]; 0.003% emulsion, 24 hr): 60%
Percentage of Worm Death (C. elegans [9]; 0.1% emulsion, 1 hr): 90%
Percentage of Worm Death (C. elegans [9]; 0.1% emulsion, 6 hr): 90%
Percentage of Worm Death (C. elegans [9]; 0.1% emulsion, 24 hr): 90%
Nematicidal activity (in words) (C. elegans [9]; concentration of 0.1%): strongly nematicidal
Time before strong killing effects are apparent (C. elegans [9]; emulsion, C. elegans): up to 30 minutes

From patent US6903052B2, “Nematicidal compositions and methods” (Divergence, Inc., priority 2002, dated 2005)
